Drawing on PubChem BioAssay (NCI), this text covers TGI for 16 compounds.

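Five concentrations, 48 hours, 96-well plates. At the TGI there is no net growth.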

What all share (experiment): NCI tumour cell line growth inhibition, 48 h
In experiment [1] the test system is COLO 205 colon.
Experiment [2] has as its system HCC-2998 colon.
In experiment [3] the test system is HL-60(TB) leukemia.
The test system of experiment [4] is IGROV1 ovarian.
In experiment [5] the test system is NCI-H226 lung.
Experiment [6] concerns NCI-H460 lung.
Experiment [7] deals with OVCAR-3 ovarian.
The test system of experiment [8] is RPMI-8226 leukemia.

For the compound `O=C(CC(O)(c1ccccc1)c1ccc(Cl)cc1)NC(=O)c1ccccc1O` (centres undefined), the TGI is 27.5 µM in experiment [1]; 21.1 µM in experiment [2]; 25 µM in experiment [3]; over 100 µM in experiment [4]; 29.8 µM in experiment [5]; 26.7 µM in experiment [6]. The same compound returned a TGI in experiment [7] of 27.4 µM.
Take `CCCOC(=O)C1CCC(=O)N1C(=O)C(Cl)Cl` (centres undefined): the TGI in experiment [1], in experiment [2], in experiment [3], in experiment [4], in experiment [5] and in experiment [6] was over 100 µM in each case. For the same compound, the TGI in experiment [7] and in experiment [8] was over 100 µM throughout.
In the case of `CN(C)CCCn1cnc2ncccc2c1=O`, the TGI in experiment [1], in experiment [2], in experiment [4], in experiment [5], in experiment [6] and in experiment [7] was over 100 µM each time.
Regarding `CCOC(=O)C(C(=O)c1ccccc1-c1ccccc1C(=O)O)=P(c1ccccc1)(c1ccccc1)c1ccccc1`, the TGI in experiment [1] was found to be 40.6 µM; in experiment [2] it was 47.7 µM; in experiment [3], 57.5 µM; in experiment [4] it was 47.3 µM; in experiment [5], 73.7 µM; in experiment [6] it was 39 µM. Also, the TGI in experiment [7] was found to be 67 µM; in experiment [8] it was 78.9 µM.
In the case of `O=C(c1ccccc1)c1nnn(Cc2cccc(Cl)c2)c1C(=O)c1ccccc1`, the TGI in experiment [1] is 38.8 µM; in experiment [2] it was over 100 µM; in experiment [3], over 100 µM; in experiment [4], over 100 µM; in experiment [5], over 100 µM; in experiment [6] it was over 100 µM. Moreover, the TGI in experiment [7] and in experiment [8] was over 100 µM in each case.
Turning to `COc1ccc(NC(=O)CC/C(CC(=O)c2ccco2)=N/Nc2ccc([N+](=O)[O-])cc2[N+](=O)[O-])cc1`, the TGI in experiment [1] was over 100 µM; in experiment [2], over 100 µM; in experiment [3], 88.8 µM; in experiment [4] it was over 100 µM; in experiment [5] it was over 100 µM; in experiment [6], over 100 µM. Moreover, the TGI in experiment [7] was over 100 µM; in experiment [8], 82.3 µM.
With `COC1CCC(=C2C(=O)OC(C)(C)OC2=O)N1` (centres undefined), the TGI in experiment [1], in experiment [2], in experiment [3], in experiment [4], in experiment [5] and in experiment [6] was over 100 µM in each case. Also, the TGI in experiment [8] is over 100 µM.
In the case of `Cc1c(C(=O)/C=C/c2ccco2)[n+](=O)c2ccccc2n1[O-]`, the TGI in experiment [1], in experiment [2], in experiment [3], in experiment [4], in experiment [5] and in experiment [6] was over 100 µM in each case. The TGI in experiment [7] and in experiment [8] was over 100 µM in each case.
For the compound `COC(=O)C1=Cc2cc3c(cc2[C@H](c2ccc4c(c2)OCO4)C1C(=O)OC)OCO3` (some centres undefined), the TGI in experiment [1], in experiment [2], in experiment [3], in experiment [4], in experiment [5] and in experiment [6] was over 100 µM in each case. Also, the TGI in experiment [7] and in experiment [8] was over 100 µM each time.
As to `N#Cc1c([N+](=O)[O-])cc(C(F)(F)F)cc1[N+](=O)[O-]`, the TGI in experiment [1] worked out at 14.8 µM; in experiment [4], 20.8 µM; in experiment [5] it was 37.3 µM; in experiment [6], 40.3 µM; in experiment [7], 30.9 µM; in experiment [8], 6.28 µM.
As to `COC1OC(OC)C2C(c3c(C)cc(C)cc3C)=NOC12` (centres undefined), the TGI in experiment [1], in experiment [2], in experiment [3], in experiment [4], in experiment [5] and in experiment [6] was over 100 µM each time. Besides, the TGI in experiment [7] and in experiment [8] was over 100 µM in each case.
As to `O=c1[nH]nc(-c2ccccc2)c(-c2ccccc2)c1-n1nc(-c2ccccc2)c2ccccc2c1=O`, the TGI in experiment [1], in experiment [2], in experiment [4], in experiment [5], in experiment [6] and in experiment [7] was over 100 µM each time. Besides, the TGI in experiment [8] was over 100 µM.
For the compound `CCC12C=CCN3CC[C@]4(C(=C(C(=O)OC)[C@@H]1Nc1ncnc5c1ncn5C1OC(COC(C)=O)C(OC(C)=O)C1OC(C)=O)Nc1ccccc14)C32` (some centres undefined), the TGI turned out to be 3.48 µM in experiment [1]; 4.56 µM in experiment [2]; 7.39 µM in experiment [3]; 7.31 µM in experiment [4]; 5.22 µM in experiment [5]; 5.99 µM in experiment [6]. Besides, the TGI in experiment [7] was determined as 4.3 µM; in experiment [8], 18.9 µM.
For `CCc1ccc(Cc2ccc(CC)c(NC(=O)C(=O)Cc3nc4ccccc4nc3C)c2CC)c(CC)c1NC(=O)C(=O)Cc1nc2ccccc2nc1C`, the TGI in experiment [1], in experiment [2], in experiment [3], in experiment [4], in experiment [6] and in experiment [7] was over 100 µM in each case. Further, the TGI in experiment [8] is over 100 µM.
For the compound `[N-]=[N+]=Nc1ccc(S(=O)(=O)Oc2cc(OS(=O)(=O)c3ccc(N=[N+]=[N-])cc3)cc(OS(=O)(=O)c3ccc(N=[N+]=[N-])cc3)c2)cc1`, the TGI is over 10 µM in experiment [1]; over 100 µM in experiment [2]; over 100 µM in experiment [4]; over 10 µM in experiment [5]; over 100 µM in experiment [6]; over 100 µM in experiment [7]. In addition, the TGI in experiment [8] is over 100 µM.
For `CC(C)c1ccc2c(c1)CCC1C(C)(C)[C@@H](O)CC[C@]21C` (some centres undefined), the TGI was 32.9 µM in experiment [1]; 58.1 µM in experiment [2]; 37.6 µM in experiment [3]; over 100 µM in experiment [4]; 38.5 µM in experiment [5]; 41.4 µM in experiment [6]. Moreover, the TGI in experiment [7] is over 100 µM; in experiment [8] it was 52 µM.
